The target in data set [1] is T1, VMAT2 (Homo sapiens, UniProt Q05940). In words: hVMAT2 5HT Uptake. In kind it is biochemical. Further details: expressed in transfected cells; host or cells: HEK (human embryonic kidney) cells. The protocol:
(§1) Membrane preparation for binding, uptake and release assays using HEK-hVMAT2 cells: Human embryonic kidney cells expressing the human vesicular monoamine transporter 2 (HEK-hVMAT2) were used. HEK-hVMAT2 cells were grown until confluent. The media was removed from plates, solution A [sucrose (0.32 M) with protease inhibitors] was added to the plate, and cells were scraped from plate. Cells were homogenized with 12 strokes of a glass/glass homogenizer. The homogenate was centrifuged at 800×g for 10 min. The supernatant was removed and saved, and the pellet was resuspended, homogenized and centrifuged as above. The supernatants were combined and centrifuged at 10,000×g for 20 min. The pellet was resuspended in solution A (0.75 ml). The membranes were osmotically shocked by addition of 2.625 ml ice cold water and homogenized by 5 strokes of a glass/Teflon homogenizer. The osmolarity was reestablished with addition of Tris (338 μl, 0.25M, pH 7.4 at 4° C.), sodium potassium tartrate (338 μl, 1.0 M), and MgSO4 (4 μl, 0.9M). The homogenate was centrifuged at 20,000×g for 20 min.

Data set [2] has as its target T1, VMAT2. In words: hVMAT2 [3H]DTBZ ([3H]DHTB) binding assay. Further details: expressed in transfected cells; host or cells: HEK (human embryonic kidney) cells. The protocol: as §1
Binding was terminated by filtration over Whatman GF/C filters using a Tomtec 96-well cell harvester. Filters were washed for six seconds with ice-cold saline. Scintillation fluid was added to each square and radioactivity remaining on the filters was determined using a Wallac μ- or beta-plate reader. Specific binding was defined as the difference in binding observed in the presence and absence of Ro4-1284 (10 μM, generously supplied by Hoffman LaRoche). Three or more independent competition experiments were conducted with duplicate determinations.

Where [3] appears, read: cells printed in μM under a head in nM, read-out: hVMAT2 5HT Uptake IC50 (nM) ± SEM.
The mark [4] stands for this setting: cells printed in μM under a head in nM, HEK-hVMAT2 membranes.
Where [5] appears, read: [^3H]5HT uptake, HEK-hVMAT2 preparation, read-out: hVMAT2 5HT Uptake IC50 (nM) ± SEM.
Where [6] appears, read: HEK-hVMAT2 membranes, series 5 ligands tested as hydrochloride salts.

We go through 22 compounds from patent US9546151B2, “VMAT inhibitory compounds” (Oregon Health & Science University, priority 2014, dated 2017).

Each structure is given as a SMILES string. Counter-ions that a name gives are not always drawn. Like-named read-outs stand apart in the source and are kept apart here.

A word on the melting point: it is the temperature of the solid-liquid transition. What is called IC50 is the point on the concentration scale where inhibition reaches its midpoint. By Ki is commonly meant the dissociation constant of the complex between target and ligand, obtained from inhibition or displacement.

T1 sequence (Q05940 whole entry): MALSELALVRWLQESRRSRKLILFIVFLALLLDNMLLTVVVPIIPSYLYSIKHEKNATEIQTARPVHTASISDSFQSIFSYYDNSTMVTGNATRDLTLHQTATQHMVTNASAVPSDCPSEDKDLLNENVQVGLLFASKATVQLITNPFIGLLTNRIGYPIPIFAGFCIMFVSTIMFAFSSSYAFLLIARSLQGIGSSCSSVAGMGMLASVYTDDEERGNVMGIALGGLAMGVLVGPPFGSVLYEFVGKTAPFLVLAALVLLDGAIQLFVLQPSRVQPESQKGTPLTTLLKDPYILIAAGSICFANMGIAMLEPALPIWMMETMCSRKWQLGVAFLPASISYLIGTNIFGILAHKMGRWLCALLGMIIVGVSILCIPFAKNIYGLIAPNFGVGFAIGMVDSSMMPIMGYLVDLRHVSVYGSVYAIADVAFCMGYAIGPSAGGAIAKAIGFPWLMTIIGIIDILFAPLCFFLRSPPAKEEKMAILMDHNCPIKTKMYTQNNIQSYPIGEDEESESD

`CCOC(=O)C1=C(c2ccc(F)cc2)CCN(CCn2c(=O)[nH]c3ccccc3c2=O)C1` gave a melting point of 150 to 152 °C.
The same measure, in the same setting: for `O=c1[nH]c2ccccc2c(=O)n1CCN1CC=C(c2ccc(F)cc2)CC1` the value was 208 °C; for `CCOC(=O)C1=C(c2ccccc2C(F)(F)F)CCN(CCn2c(=O)[nH]c3ccccc3c2=O)C1` (as salt: HCl) [Compound 5hh, Ethyl 1-(2-(2,4-dioxo-1,2-dihydroquinazolin-3(4H)-yl)ethyl)-4-(2-(trifluoromethyl)phenyl)-1,2,5,6-tetrahydropyridine-3-carboxylate], 153.5 to 154.5 °C; for `CCOC(=O)[C@H]1CN(CCn2c(=O)[nH]c3ccccc3c2=O)CC[C@H]1c1cccc(N(C)C)c1` (racemic) (as salt: HCl) [Compound 5aa, (±)-syn-Ethyl 4-(3-(dimethylamino)phenyl)-1-(2-(2,4-dioxo-1,2-dihydroquinazolin-3(4H),-yl)ethyl) piperidine-3-carboxylate], 179 to 180 °C.
The same measure, in the same setting: the figure for `CCOC(=O)[C@H]1CN(CCn2c(=O)[nH]c3ccccc3c2=O)CC[C@H]1c1ccccc1N(C)C` (racemic) (as salt: HCl) [Compound 5bb, (±)-syn-Ethyl 4-(2-(dimethylamino)phenyl)-1-(2-(2,4-dioxo-1,2-dihydroquinazolin-3(4H),-yl)ethyl) piperidine-3-carboxylate] is 208 to 209 °C; for `CCOC(=O)[C@H]1CN(CCn2c(=O)[nH]c3ccccc3c2=O)CC[C@H]1c1ccc(OC)c(OC)c1` (racemic) (as salt: HCl) [Compound 5dd, (±)-syn-Ethyl 4-(3,4-dimethoxyphenyl)-1-(2-(2,4-dioxo-1,2-dihydroquinazolin-3(4H),-yl)ethyl) piperidine-3-carboxylate] it is 154.5 to 155.5 °C.
For the compound `CCOC(=O)[C@H]1CN(CCn2c(=O)[nH]c3ccccc3c2=O)CC[C@H]1c1ccccc1N(C)C` (racemic) [Compound 5bb, (±)-syn-Ethyl 4-(2-(dimethylamino)phenyl)-1-(2-(2,4-dioxo-1,2-dihydroquinazolin-3(4H),-yl)ethyl) piperidine-3-carboxylate], the IC50 in data set [1] (setting [3]) was more than 2 µM. The compound further registered a Ki in data set [2] (setting [4]) of more than 6 µM.
For `CCOC(=O)[C@H]1CN(CCn2c(=O)[nH]c3ccccc3c2=O)CC[C@H]1c1cccc(N=[N+]=[N-])c1` (racemic) [Compound 5cc, (±)-syn-Ethyl 4-(3-azidophenyl)-1-(2-(2,4-dioxo-1,2-dihydroquinazolin-3(4H)-yl)ethyl)piperidine-3-carboxylate], the 50% inhibitory concentration (IC50) in data set [1] (setting [5]) stood at 0.074 ± 0.011 µM. Further, the inhibition constant (Ki) in data set [2] (setting [4]) was more than 7 µM.
`CCOC(=O)[C@H]1CN(CCn2c(=O)[nH]c3ccccc3c2=O)CC[C@H]1c1ccc(OC)c(OC)c1` (racemic) [Compound 5dd, (±)-syn-Ethyl 4-(3,4-dimethoxyphenyl)-1-(2-(2,4-dioxo-1,2-dihydroquinazolin-3(4H),-yl)ethyl) piperidine-3-carboxylate]: the IC50 in data set [1] (setting [3]) was more than 3 µM. Besides, the inhibitory constant (Ki) in data set [2] (setting [4]) is more than 10 µM.
As to `CCOC(=O)[C@H]1CN(CCn2c(=O)[nH]c3ccccc3c2=O)CC[C@H]1c1ccc(O)c(O)c1` (racemic) [Compound 5ff, (±)-syn-Ethyl 4-(3,4-dihydroxyphenyl)-1-(2-(2,4-dioxo-1,2-dihydroquinazolin-3(4H)-yl)ethyl)piperidine-3-carboxylate], the concentration for half-maximal inhibition (IC50) in data set [1] (setting [5]) is 0.333 ± 0.085 µM.
Take `CCOC(=O)[C@@H]1CN(CCn2c(=O)[nH]c3ccccc3c2=O)CC[C@@H]1c1ccc(C(N)=O)cc1` (racemic) [Compound 5i, (±) syn-ethyl 4-(4-carbamoylphenyl)-1-(2-(2,4-dioxo-1,2-dihydroquinazolin-3(4H)-yl)ethyl)piperidine-3-carboxylate]: the IC50 in data set [1] (setting [3]) was more than 10 µM. Moreover, the Ki in data set [2] (setting [4]) is more than 3 µM.
As to `CCOC(=O)[C@H]1CN(CCn2c(=O)[nH]c3ccccc3c2=O)CC[C@H]1c1ccc(OC(F)(F)F)cc1` (racemic) [Compound 5ii, (±)-syn-ethyl 1-(2-(2,4-dioxo-1,2-dihydroquinazolin-3(4H)-yl)ethyl)-4-(4-(trifluoromethoxy)phenyl)piperidine-3-carboxylate], the inhibition constant (Ki) in data set [2] (setting [4]) was more than 5 µM.
As for `CCOC(=O)[C@H]1CN(CCn2c(=O)[nH]c3ccccc3c2=O)CC[C@H]1c1ccc(N)cc1` (racemic) [Compound 5mm, (±)-syn-Ethyl 4-(4-aminophenyl)-1-(2-(2,4-dioxo-1,2-dihydroquinazolin-3(4H),-yl)ethyl) piperidine-3-carboxylate], the concentration for half-maximal inhibition (IC50) in data set [1] (setting [5]) came out at 2.15 ± 0.237 µM. The compound further displayed an inhibitory constant (Ki) in data set [2] (setting [4]) of more than 10 µM.
The corresponding values for `CCOC(=O)[C@H]1CN(CCn2c(=O)[nH]c3ccccc3c2=O)CC[C@H]1c1cccc(OC)c1` (racemic) [Compound 5q, (±)-syn-Ethyl 1-(2-(2,4-dioxo-1,2-dihydroquinazolin-3(4H),-yl)ethyl)-4-(3-methoxyphenyl) piperidine-3-carboxylate] are 0.18 ± 0.054 µM and more than 10 µM.
The like results for `CCOC(=O)[C@H]1CN(CCn2c(=O)[nH]c3ccccc3c2=O)CC[C@H]1c1ccc(OC)cc1` (racemic) [Compound 5r, (±)-syn-Ethyl 1-(2-(2,4-dioxo-1,2-dihydroquinazolin-3(4H),-yl)ethyl)-4-(4-methoxyphenyl) piperidine-3-carboxylate] were, in that order, 0.036 ± 0.011 µM and more than 10 µM.
Take `CCOC(=O)[C@H]1CN(CCn2c(=O)[nH]c3ccccc3c2=O)CC[C@H]1c1ccc(CC)cc1` (racemic) [Compound 5t, (±)-syn-Ethyl 1-(2-(2,4-dioxo-1,2-dihydroquinazolin-3(4H),-yl)ethyl)-4-(4-ethylphenyl) piperidine-3-carboxylate]: the IC50 in data set [1] (setting [5]) amounted to 0.906 ± 0.014 µM. Further, the Ki in data set [2] (setting [6]) was more than 8.4 µM.
The like results for `CCOC(=O)[C@H]1CN(CCn2c(=O)[nH]c3ccccc3c2=O)CC[C@H]1c1ccc(C(C)C)cc1` (racemic) [Compound 5u, (±)-syn-Ethyl 1-(2-(2,4-dioxo-1,2-dihydroquinazolin-3(4H),-yl)ethyl)-4-(4-isopropylphenyl) piperidine-3-carboxylate] were, in that order, 0.684 ± 0.249 µM and 1.62 ± 0.107 µM.
The corresponding values for `CCOC(=O)[C@H]1CN(CCn2c(=O)[nH]c3ccccc3c2=O)CC[C@H]1c1cccc(C)c1` (racemic) [Compound 5y, (±)-syn-Ethyl 1-(2-(2,4-dioxo-1,2-dihydroquinazolin-3(4H),-yl)ethyl)-4-(m-tolyl)piperidine-3-carboxylate] are 0.053 ± 0.01 µM and more than 6.2 µM.
With `CCOC(=O)[C@H]1CN(CCn2c(=O)[nH]c3ccccc3c2=O)CC[C@H]1c1ccccc1C` (racemic) [Compound 5z, (±)-syn-Ethyl 1-(2-(2,4-dioxo-1,2-dihydroquinazolin-3(4H),-yl)ethyl)-4-(o-tolyl)piperidine-3-carboxylate], the concentration for half-maximal inhibition (IC50) in data set [1] (setting [5]) was found to be 0.031 ± 0.003 µM. The inhibition constant Ki in data set [2] (setting [4]) was more than 5 µM.
For `CCOC(=O)[C@H]1CN(CCn2c(=O)[nH]c3ccccc3c2=O)CC[C@H]1c1ccc(C)s1` [A1=CH3], half-maximal inhibition in data set [1] (IC50) was put at 0.312 ± 0.018 µM. The Ki in data set [2] is more than 8 µM.
Turning to `CCOC(=O)C1=C(c2ccccc2C(F)(F)F)CCN(CCn2c(=O)[nH]c3ccccc3c2=O)C1` [Compound 5hh, Ethyl 1-(2-(2,4-dioxo-1,2-dihydroquinazolin-3(4H)-yl)ethyl)-4-(2-(trifluoromethyl)phenyl)-1,2,5,6-tetrahydropyridine-3-carboxylate], in data set [1] (setting [5]), the IC50 worked out at 0.328 ± 0.038 µM.
`O=C(c1ccc(F)cc1)C1CCN(CCn2c(=O)[nH]c3ccccc3c2=O)CC1` [R1=H, R2=H]: the IC50 in data set [1] (setting [5]) was found to be 0.142 ± 0.023 µM. In addition, the inhibition constant (Ki) in data set [2] (setting [6]) worked out at 0.119 ± 0.003 µM.
